In US20250051347A1, “BIFUNCTIONAL CHIMERIC HETEROCYCLIC COMPOUND AND USE THEREOF AS ANDROGEN RECEPTOR DEGRADER” (Hinova Pharmaceuticals, Inc., priority 2021, published 2025):

Assays:
[1] = Pharmacokinetics in mice (plasma exposure after oral administration); type: in vivo; details: mouse, ICR mice, oral (i.g.) 3 mg/kg, read-out: After oral administration of 3 mg/kg, mouse plasma exposure AUCinf
[2] = system: 22RV1 cells; details: Homo sapiens, 22Rv1, 144 h, read-out: 22RV1 IC50 (nM), 22RV1 cells, 6 days culture, CCK-8, OD 450 nm
Method: • 22RV1 cell lines (Cobioer, CBP6034) • Penicillin-Streptomycin (Hyclone, Cat. No. SV30010) • Cell counting kit-8 (Signalway Antibody, Cat. No. CP002)
Then, two wells were set for each concentration. 20 μL of the diluted compound solution was added to the cell culture well, and then the plate was gently shaken to mix. In addition, the experiment included 3 negative control wells only containing cells and 3 blank control wells only containing culture medium.

[3] = biological target: T1, androgen receptor (AR) splicing variant AR-v7 (Homo sapiens, UniProt P10275); assay: Degradation activity on androgen receptor splicing variant AR-v7 in 22RV1 cells (ELISA); type: cell-based; details: AR-v7 degradation in 22RV1 cells, 48 h, class symbols
T1 construct: The degradation activity of compounds on AR-v7 in 22RV1 cells; host or cells: 22RV1 cells
T1 sequence (P10275 1-644 isoform P10275-3): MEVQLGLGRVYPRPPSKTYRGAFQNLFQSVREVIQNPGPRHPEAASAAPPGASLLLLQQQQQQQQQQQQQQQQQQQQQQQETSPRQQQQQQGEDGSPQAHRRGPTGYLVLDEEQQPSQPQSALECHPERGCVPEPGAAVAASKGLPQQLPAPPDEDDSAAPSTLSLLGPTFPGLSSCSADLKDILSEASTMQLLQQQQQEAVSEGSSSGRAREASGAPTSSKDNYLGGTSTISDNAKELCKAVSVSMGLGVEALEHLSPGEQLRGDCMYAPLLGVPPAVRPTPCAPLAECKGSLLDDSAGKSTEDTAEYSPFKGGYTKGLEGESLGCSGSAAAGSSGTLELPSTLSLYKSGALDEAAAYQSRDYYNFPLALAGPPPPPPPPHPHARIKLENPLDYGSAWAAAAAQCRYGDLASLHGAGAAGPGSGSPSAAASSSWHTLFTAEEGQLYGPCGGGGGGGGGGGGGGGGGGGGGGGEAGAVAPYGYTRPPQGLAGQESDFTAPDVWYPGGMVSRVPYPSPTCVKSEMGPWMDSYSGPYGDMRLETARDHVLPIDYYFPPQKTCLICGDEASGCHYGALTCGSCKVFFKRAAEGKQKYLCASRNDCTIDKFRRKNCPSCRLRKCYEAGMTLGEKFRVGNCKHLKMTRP

SMILES | AUC(0-inf) [1] | IC50 [2] | DC50 [3]
C=CC(c1ccc(Oc2ccc(-n3nccn3)nn2)cc1)c1ccc(O[C@H]2C[C@H](Nc3ccc4c(c3)C(=O)N(C3CCC(=O)NC3=O)C4=O)C2)cc1 (stereo partly drawn) [Example 371, 5-(((1r,3r)-3-(4-(1-(4-((6-(2H-1,2,3-triazole-2-yl)pyridazine-3-yl)oxy)phenyl)allyl)phenoxy)cyclobutyl)amino)-2-(2,6-dioxopiperidin-3-yl)isoindolin-1,3-dione] | 5000 to 30000 ng·h/mL | 9 nM | < 10 nM
C=CC(c1ccc(Oc2cnc(-n3nccn3)nc2)cc1)c1ccc(O[C@H]2C[C@H](Nc3ccc4c(c3)C(=O)N(C3CCC(=O)NC3=O)C4=O)C2)cc1 (stereo partly drawn) [Example 372, 5-(((1r,3r)-3-(4-(1-(4-((2-(2H-1,2,3-triazole-2-yl)pyrimidin-5-yl)oxy)phenyl)allyl)phenoxy)cyclobutyl)amino)-2-(2,6-dioxopiperidin-3-yl)isoindolin-1,3-dione] | 5000 to 30000 ng·h/mL | 8 nM | < 10 nM
C=CC(c1ccc(Oc2cnc(-c3nnc(C)o3)nc2)cc1)c1ccc(O[C@H]2C[C@H](Nc3ccc4c(c3)C(=O)N(C3CCC(=O)NC3=O)C4=O)C2)cc1 (stereo partly drawn) [Example 373, 2-(2,6-dioxopiperidin-3-yl)-5-(((1r,3r)-3-(4-(1-(4-((2-(5-methyl-1,3,4-oxadiazol-2-yl)pyrimidin-5-yl)oxy)phenyl)allyl)phenoxy)cyclobutyl)amino)isoindolin-1,3-dione] | 5000 to 30000 ng·h/mL | 13 nM | < 10 nM
CC(O)c1ncc(Oc2ccc(C3(c4ccc(O[C@H]5C[C@H](Nc6ccc7c(c6)C(=O)N(C6CCC(=O)NC6=O)C7=O)C5)cc4)CC3)cc2)cn1 (stereo partly drawn) [Example 377, 2-(2,6-dioxopiperidin-3-yl)-5-(((1r,3r)-3-(4-(1-(4-((2-(1-hydroxylethyl)pyrimidin-5-yl)oxy)phenyl)cyclopropyl)phenoxy)cyclobutyl)amino)isoindolin-1,3-dione] | 5000 to 30000 ng·h/mL | 12 nM | < 10 nM
Cc1nnc(-c2cccc(Oc3ccc(C(C)(C)c4ccc(O[C@H]5C[C@H](Nc6ccc7c(c6)C(=O)N(C6CCC(=O)NC6=O)C7=O)C5)cc4)cc3)n2)o1 (stereo partly drawn) [Example 423] | 5000 to 30000 ng·h/mL | 3 nM | < 10 nM
Cc1noc(-c2nccc(Oc3ccc(C(C)(C)c4ccc(O[C@H]5C[C@H](Nc6ccc7c(c6)C(=O)N(C6CCC(=O)NC6=O)C7=O)C5)cc4)cc3)n2)n1 (stereo partly drawn) [Example 426] | 1000 to 5000 ng·h/mL | 7 nM | < 10 nM
CC(C)(c1ccc(OCc2ccnc(-n3nccn3)n2)cc1)c1ccc(O[C@H]2C[C@@H](Nc3ccc4c(c3)C(=O)N(C3CCC(=O)NC3=O)C4=O)C2)cc1 (stereo partly drawn) [Example 446, 5-(((1s,3s)-3-(4-(2-(4-((2-(2H-1,2,3-triazol-2-yl)pyrimidin-4-yl)methoxy)phenyl)propan-2-yl)phenoxy)cyclobutyl)amino)-2-(2,6-dioxopiperidin-3-yl)isoindolin-1,3-dione] | 5000 to 30000 ng·h/mL | 9 nM | 11 to 100 nM
CC1(O)CN(c2nccc(COc3ccc(C(C)(C)c4ccc(O[C@H]5C[C@@H](Nc6ccc7c(c6)C(=O)N(C6CCC(=O)NC6=O)C7=O)C5)cc4)cc3)n2)C1 (stereo partly drawn) [Example 455] | 1000 to 5000 ng·h/mL | 5 nM | < 10 nM
CN(C)[C@@H]1CCN(c2nccc(COc3ccc(C(C)(C)c4ccc(O[C@H]5C[C@@H](Nc6ccc7c(c6)C(=O)N(C6CCC(=O)NC6=O)C7=O)C5)cc4)cc3)n2)C1 (stereo partly drawn) [Example 456] | 5000 to 30000 ng·h/mL | 12 nM | < 10 nM
CC(C)(c1ccc(OCc2ccnc(-c3nnco3)n2)cc1)c1ccc(O[C@H]2C[C@@H](Nc3ccc4c(c3)C(=O)N(C3CCC(=O)NC3=O)C4=O)C2)cc1 (stereo partly drawn) [Example 464, 5-(((1s,3s)-3-(4-(2-(4-((2-(1,3,4-oxadiazol-2-yl)pyrimidin-4-yl)methoxy)phenyl)propan-2-yl)phenoxy)cyclobutyl)amino)-2-(2,6-dioxopiperidin-3-yl)isoindolin-1,3-dione] | 100 to 1000 ng·h/mL | 4 nM | < 10 nM
Cc1nnc(-c2ncc(Oc3ccc(C4(c5ccc(O[C@H]6C[C@H](Nc7ccc8c(c7)C(=O)N(C7CCC(=O)NC7=O)C8=O)C6)cc5)CCCC4)cc3)cn2)o1 (stereo partly drawn) [Example 483] | 5000 to 30000 ng·h/mL | 2 nM | < 10 nM
CC(C)(c1ccc(CN2CC(Nc3ccc4c(c3)C(=O)N(C3CCC(=O)NC3=O)C4=O)C2)cc1)c1ccc(OCc2ccnc(N3CC4(COC4)C3)n2)cc1 (stereo not drawn) [Example 502] | 1000 to 5000 ng·h/mL | 12 nM | < 10 nM
CC(C)(c1ccc(Oc2cc(F)cnc2-n2ccnn2)cc1)c1ccc(O[C@H]2C[C@H](Nc3ccc4c(c3)C(=O)N(C3CCC(=O)NC3=O)C4=O)C2)cc1 (stereo partly drawn) [Example 516] | 1000 to 5000 ng·h/mL | 10 nM | < 10 nM
CC(O)c1ncc(Oc2ccc(C3(c4ccc(O[C@H]5C[C@H](Nc6ccc7c(c6)C(=O)N(C6CCC(=O)NC6=O)C7=O)C5)cc4)CCCCC3)cc2)cn1 (stereo partly drawn) [Example 528] | 5000 to 30000 ng·h/mL | 2 nM | < 10 nM
CCC(CC)(c1ccc(Oc2cnc(-c3noc(C)n3)nc2)cc1)c1ccc(O[C@H]2C[C@@H](Nc3ccc4c(c3)C(=O)N(C3CCC(=O)NC3=O)C4=O)C2)cc1 (stereo partly drawn) [Example 553] | 5000 to 30000 ng·h/mL | 15 nM | < 10 nM
CC(C)(c1ccc(Oc2cnc(-n3ccnn3)cn2)cc1)c1ccc(O[C@H]2C[C@H](Nc3ccc4c(c3)C(=O)N(C3CCC(=O)NC3=O)C4=O)C2)cc1 (stereo partly drawn) [Example 584] | 1000 to 5000 ng·h/mL | 4 nM | < 10 nM
Cc1nc(-c2cc(Oc3ccc(C(C)(C)c4ccc(O[C@H]5C[C@H](Nc6ccc7c(c6)C(=O)N(C6CCC(=O)NC6=O)C7=O)C5)cc4)cc3)ncn2)no1 (stereo partly drawn) [Example 588] | 5000 to 30000 ng·h/mL | 13 nM | < 10 nM
